Several values for one entry are separate records, joined by “and”; a condition that tells them apart may be missing. Equal values may be shown once. Toxic doses and inconclusive results are not listed. The calls were made as follows: active = survival T/C of 150% or more; inactive = T/C below 125% in these data.
System: P388 leukemia ip, CD2F1 mice, survival T/C
Experiment: NCI In Vivo Anticancer Drug Screen. Data for tumor model P388 Leukemia (intraperitoneal) in CD2F1 (CDF1) mice
Settings: endpoint: median survival time, higher = longer survival
In short: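 Mice carrying the transplanted tumor received test compound or vehicle. Survival was recorded in each group, and the value is the treated-group measurement divided by that of the vehicle-treated control group.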

[1] = dose: 50.0 mg/kg/injection, schedule: Q01DX005 (ip), vehicle: saline with Tween-80
[2] = dose: 100.0 mg/kg/injection, schedule: Q01DX005 (ip), vehicle: saline with Tween-80
[3] = dose: 200.0 mg/kg/injection, schedule: Q01DX005 (ip), vehicle: saline with Tween-80
[4] = dose: 50.0 mg/kg/injection, schedule: Q04DX003 (ip), vehicle: saline with Tween-80
[5] = dose: 50.0 mg/kg/injection, schedule: Q01DX005 (ip), vehicle: Klucel (hydroxypropylcellulose) (HPC)
[6] = dose: 100.0 mg/kg/injection, schedule: Q01DX005 (ip), vehicle: Klucel (hydroxypropylcellulose) (HPC)
[7] = dose: 100.0 mg/kg/injection, schedule: Q01DX001 (ip), vehicle: Klucel (hydroxypropylcellulose) (HPC)
[8] = dose: 200.0 mg/kg/injection, schedule: Q01DX001 (ip), vehicle: Klucel (hydroxypropylcellulose) (HPC)
[9] = dose: 400.0 mg/kg/injection, schedule: Q01DX001 (ip), vehicle: Klucel (hydroxypropylcellulose) (HPC)
[10] = dose: 100.0 mg/kg/injection, schedule: Q04DX003 (ip), vehicle: Klucel (hydroxypropylcellulose) (HPC)
[11] = dose: 200.0 mg/kg/injection, schedule: Q04DX003 (ip), vehicle: Klucel (hydroxypropylcellulose) (HPC)
[12] = dose: 200.0 mg/kg/injection, schedule: Q01DX005 (ip), vehicle: Klucel (hydroxypropylcellulose) (HPC)
[13] = dose: 60.0 mg/kg/injection, schedule: Q01DX005 (ip), vehicle: Klucel (hydroxypropylcellulose) (HPC)
[14] = dose: 120.0 mg/kg/injection, schedule: Q01DX005 (ip), vehicle: Klucel (hydroxypropylcellulose) (HPC)

Measured: T/C

O=c1c2ccccc2ncn1Cc1ccco1
inactive: [1] 98 % of control | [2] 98 % of control | [3] 99 % of control

CC(C)(C#N)C#N
inactive: dose: 25.0 mg/kg/injection, schedule: Q04DX003 (ip), vehicle: saline with Tween-80 100 % of control | [4] 100 % of control

CCN(CC)c1ccc(/C=N\NC(=O)C(=O)N/N=C\c2ccc(N(CC)CC)cc2)cc1
inactive: [1] 87 % of control | [2] 87 % of control | [3] 89 % of control

COc1cccc2c1C(=O)C=C(c1ccccc1)S2(=O)=O
inactive: [5] 111 % of control | [6] 111 % of control

CC(N=Cc1ccccc1O)c1ccccc1.[CH-]=C([CH2-])C(C)(C)C.[Pd+2] (configuration not stated)
inactive: dose: 6.25 mg/kg/injection, schedule: Q04DX003 (ip), vehicle: Klucel (hydroxypropylcellulose) (HPC) 108 % of control | dose: 12.5 mg/kg/injection, schedule: Q04DX003 (ip), vehicle: Klucel (hydroxypropylcellulose) (HPC) 93 % of control | dose: 25.0 mg/kg/injection, schedule: Q04DX003 (ip), vehicle: Klucel (hydroxypropylcellulose) (HPC) 92 % of control

Cc1ccc(S(=O)(=O)N/N=C/C(C)(c2ccccc2)c2ccccc2)cc1
inactive: dose: 25.0 mg/kg/injection, schedule: Q01DX009 (ip), vehicle: saline 92 % of control | dose: 50.0 mg/kg/injection, schedule: Q01DX009 (ip), vehicle: saline 99 % of control and 90 % of control | dose: 100.0 mg/kg/injection, schedule: Q01DX009 (ip), vehicle: saline 99 % of control and 94 % of control | dose: 200.0 mg/kg/injection, schedule: Q01DX009 (ip), vehicle: saline 97 % of control

CCOC(=O)C1n2c(=O)n(-c3ccccc3)c(=O)n21
inactive: dose: 50.0 mg/kg/injection, schedule: Q01DX005 (ip), vehicle: Klucel + Tween-80 96 % of control | dose: 100.0 mg/kg/injection, schedule: Q01DX005 (ip), vehicle: Klucel + Tween-80 87 % of control | dose: 200.0 mg/kg/injection, schedule: Q01DX005 (ip), vehicle: Klucel + Tween-80 93 % of control

Cn1cnc2c(F)ncnc21
inactive: [5] 100 % of control | [6] 101 % of control

CC(C)NC1CCC(Nc2ccnc3cc(Cl)ccc23)CC1 (configuration not stated)
inactive: [5] 98 % of control | [6] 97 % of control

CC(=O)NNc1cccc(Cl)n1
inactive: [7] 98 % of control | [8] 96 % of control | [9] 97 % of control

C=CCSc1nc2ccc(NCn3c(=S)sc4ccccc43)cc2s1
inactive: [10] 89 % of control | [11] 89 % of control | dose: 400.0 mg/kg/injection, schedule: Q04DX003 (ip), vehicle: Klucel (hydroxypropylcellulose) (HPC) 89 % of control

COc1ccc(C(Nc2ccccn2)c2cc(C(C)(C)C)c(O)c(C(C)(C)C)c2)cc1 (configuration not stated)
inactive: [1] 88 % of control | [2] 91 % of control | [3] 95 % of control

O=C(/C=C/c1c(-c2ccccc2)[nH]c2ccccc12)c1ccccc1O
inactive: dose: 7.5 mg/kg/injection, schedule: Q01DX005 (ip), vehicle: saline with Tween-80 106 % of control | dose: 15.0 mg/kg/injection, schedule: Q01DX005 (ip), vehicle: saline with Tween-80 92 % of control | dose: 30.0 mg/kg/injection, schedule: Q01DX005 (ip), vehicle: saline with Tween-80 90 % of control | dose: 240.0 mg/kg/injection, schedule: Q01DX005 (ip), vehicle: saline with Tween-80 88 % of control

[N-]=[N+]=Nc1nn2cnnc2c2[nH]c3ccccc3c12
inactive: dose: 12.5 mg/kg/injection, schedule: Q01DX005 (ip), vehicle: Klucel (hydroxypropylcellulose) (HPC) 104 % of control | dose: 25.0 mg/kg/injection, schedule: Q01DX005 (ip), vehicle: Klucel (hydroxypropylcellulose) (HPC) 108 % of control | [5] 100 % of control and 101 % of control | [6] 96 % of control | [12] 99 % of control

O=C(O)c1ccc(Oc2nc3ccccc3s2)cc1
inactive: [4] 91 % of control | dose: 100.0 mg/kg/injection, schedule: Q04DX003 (ip), vehicle: saline with Tween-80 91 % of control

c1ccc2c3[n+](ccc2c1)CCC[n+]1ccc2ccccc2c1-3
inactive: dose: 3.12 mg/kg/injection, schedule: Q01DX001 (ip), vehicle: saline 106 % of control | dose: 6.25 mg/kg/injection, schedule: Q01DX001 (ip), vehicle: saline 106 % of control | dose: 12.5 mg/kg/injection, schedule: Q01DX001 (ip), vehicle: saline 92 % of control

CC(C)C(NC=O)C(=O)O (configuration not stated)
inactive: [5] 101 % of control | [1] 91 % of control | [6] 101 % of control | [2] 98 % of control | [12] 95 % of control | [3] 94 % of control

COc1cc(NCCN(C)C(C)Cc2ccccc2)c2ncccc2c1 (configuration not stated)
inactive: dose: 50.0 mg/kg/injection, schedule: Q01DX005 (ip), vehicle: saline 106 % of control | dose: 100.0 mg/kg/injection, schedule: Q01DX005 (ip), vehicle: saline 104 % of control

Cc1ccc(S(=O)(=O)Nn2nnc(-c3ccccc3)n2)cc1
inactive: dose: 50.0 mg/kg/injection, schedule: Q04DX003 (ip), vehicle: Klucel (hydroxypropylcellulose) (HPC) 98 % of control | [10] 102 % of control | [11] 102 % of control

NC(=S)N/N=C/c1c(-c2ccc(Cl)cc2)nc2n1CCS2
inactive: [7] 97 % of control | [8] 100 % of control | [9] 97 % of control

COc1cc2c(c(OC)c1OC)-c1cc3c(cc1CC1COC(=O)N1C2)OCO3 (configuration not stated)
inactive: dose: 15.0 mg/kg/injection, schedule: Q01DX005 (ip), vehicle: Klucel (hydroxypropylcellulose) (HPC) 90 % of control and 94 % of control | dose: 30.0 mg/kg/injection, schedule: Q01DX005 (ip), vehicle: Klucel (hydroxypropylcellulose) (HPC) 100 % of control and 105 % of control | [13] 103 % of control and 116 % of control and 96 % of control

Cc1nn(-c2ccccc2)c2c1C(=O)CC(C)O2 (configuration not stated)
inactive: [13] 93 % of control | [14] 91 % of control

CCN(CC)CC.[CH-]1CCCCC1.[CH-]1CCCCC1.[CH3-].[Cl-].[I-].[Sn+4]
inactive: dose: 6.0 mg/kg/injection, schedule: Q01DX005 (ip), vehicle: saline with Tween-80 101 % of control | dose: 12.0 mg/kg/injection, schedule: Q01DX005 (ip), vehicle: saline with Tween-80 102 % of control

COc1cccc(C=O)c1OS(=O)(=O)c1ccc(C)cc1
inactive: dose: 25.0 mg/kg/injection, schedule: Q01DX009 (ip), vehicle: other 101 % of control | dose: 50.0 mg/kg/injection, schedule: Q01DX009 (ip), vehicle: other 108 % of control | dose: 100.0 mg/kg/injection, schedule: Q01DX009 (ip), vehicle: other 108 % of control

CC1=C2C3OC(=O)C(C)C3CCC2(C)C=C(Br)C1=O (configuration not stated)
inactive: [13] 106 % of control | dose: 100.0 mg/kg/injection, schedule: Q04DX002 (ip), vehicle: saline with Tween-80 101 % of control | [14] 98 % of control | dose: 200.0 mg/kg/injection, schedule: Q04DX002 (ip), vehicle: saline with Tween-80 97 % of control | dose: 240.0 mg/kg/injection, schedule: Q01DX005 (ip), vehicle: Klucel (hydroxypropylcellulose) (HPC) 104 % of control | dose: 400.0 mg/kg/injection, schedule: Q04DX002 (ip), vehicle: saline with Tween-80 97 % of control
